Measured values: the NIST ThermoML archive (doi:10.1016/j.tca.2012.02.012)
Numbers after ± are expanded uncertainties.

Columns and labels:
[1] = excess molar enthalpy (molar enthalpy of mixing); xn = mol fraction of the nth substance listed; conditions: 1850 K, 101 kPa, Liquid, Knudsen
[2] = xn = mol fraction of the nth substance listed; conditions: 1850 K, 101 kPa, Liquid, Knudsen

| excess molar enthalpy ([1]; x1 = 0.5) [kJ/mol] | excess molar Gibbs energy ([2]; x1 = 0.5) [kJ/mol] | excess molar enthalpy ([1]; x2 = 0.5) [kJ/mol] | excess molar Gibbs energy ([2]; x2 = 0.5) [kJ/mol] | Structure (SMILES) |
| --- | --- | --- | --- | --- |
| 7.35 ± 0.075 | -0.761 ± 0.001 |  |  | [Fe] [iron] + [Au] |
|  |  | -25.1 ± 0.25 | -7.21 ± 0.001 | [Pd] [palladium] + [Fe] |
